Data as given in paper PMC4076294 (Journal of the American Chemical Society, 2014).
Where “and” joins values, the source holds several entries; their conditions need not be identical. Equal entries are not always repeated.

Legend:
A2780 = assay: MTT assay; format: cell-based, human; conditions: read-out: IC50 at 48 h; A2780, 48 h
[1] = test system: A2780 ovarian cancer cells; assay: LIVE/DEAD cell viability assay; format: cell-based, human; conditions: 10 μM, 48 h
[2] = test system: nuclear DNA of A2780 cells; assay: DNA platination experiment; format: cell-based, human; conditions: 5 μM, 5 h, then 16 h in fresh media
[3] = comparison values; cited from earlier work

| Structure (SMILES) | IC50 (A2780) [µM] | LIVE/DEAD cell assay outcome [1] | extent of DNA platination [2] | half-life in blood (t1/2) [3] |
| --- | --- | --- | --- | --- |
| N.N.[Cl][Pt][Cl] [cisplatin] | 6.35 ± 1.39 | mostly survived | 36.4 ± 5.5 Pt adducts/10^6 nucleotides | – |
| CC(=O)[O][Pt]([NH2])([Cl])([Cl])([NH]C1CCCCC1)[O]C(C)=O [satraplatin] | – | – | – | 6.3 min and ~6 min |
